ChEMBL document CHEMBL1158981, “An Unusual Sulfur-Containing Diketopiperazine from the Bermudian Sponge Tedania ignis” (J Nat Prod, 1991)

System: Artemia
Experiment: Toxicity against brine shrimp
Format: organism-based
Conditions: in vivo

For `O=C1[C@@H]2CCCN2C(=O)[C@H]2CSCN12`, the Activity was “Non-toxic”.
